Tests used:
Format in all cases: functional
Tobacco mosaic virus [1] = assay: Antiviral activity against Tobacco mosaic virus (TMV) assessed as inhibition effect at 1 ug/mL
Tobacco mosaic virus [2] = assay: In vivo antiviral activity against Tobacco mosaic virus (TMV) pre-inoculated Nicotiana. tabacum L. leaves assessed as curative effect at 100 ug/mL measured after 3 to 4 days
Tobacco mosaic virus [3] = assay: In vivo antiviral activity against Tobacco mosaic virus (TMV) inoculated left side of Nicotiana. tabacum L. leaves assessed as inactivation effect at 100 ug/mL co-incubated with virus measured after 3 to 4 days
Tobacco mosaic virus [4] = assay: In vivo antiviral activity against Tobacco mosaic virus (TMV) pre-inoculated Nicotiana. tabacum L. leaves assessed as curative effect at 500 ug/mL measured after 3 to 4 days
Tobacco mosaic virus [5] = assay: Antiviral activity against Tobacco mosaic virus (TMV) inoculated in 5-6 growth stage leaf assessed as inhibition effect at 500 ug/mL at 25 degC after 72 hr by half-leaf method
Tobacco mosaic virus [6] = assay: In vivo antiviral activity against Tobacco mosaic virus (TMV) inoculated right side of Nicotiana. tabacum L. leaves assessed as protection effect at 500 ug/mL preincubated 12 hr before viral challenge measured after 3 to 4 days
Tobacco mosaic virus [7] = assay: In vivo antiviral activity against Tobacco mosaic virus (TMV) inoculated left side of Nicotiana. tabacum L. leaves assessed as inactivation effect at 500 ug/mL co-incubated with virus measured after 3 to 4 days
Tobacco mosaic virus [8] = assay: Antiviral activity against Tobacco mosaic virus (TMV) inoculated in 5-6 growth stage leaf assessed as inhibition effect at 100 ug/mL at 25 degC after 72 hr by half-leaf method
Tobacco mosaic virus [9] = assay: In vivo antiviral activity against Tobacco mosaic virus (TMV) inoculated right side of Nicotiana. tabacum L. leaves assessed as protection effect at 100 ug/mL preincubated 12 hr before viral challenge measured after 3 to 4 days
Tobacco mosaic virus [10] = assay: Antiviral activity against Tobacco mosaic virus (TMV) assessed as inhibition effect at 500 ug/mL

SMILES | inhibition at 1 µg/mL (Tobacco mosaic virus [1]) [%] | inhibition in vivo at 100 µg/mL (Tobacco mosaic virus [2]) [%] | inhibition in vivo at 100 µg/mL (Tobacco mosaic virus [3]) [%] | inhibition in vivo at 500 µg/mL (Tobacco mosaic virus [4]) [%] | inhibition at 500 µg/mL (Tobacco mosaic virus [5]) [%] | inhibition in vivo at 500 µg/mL (Tobacco mosaic virus [6]) [%] | inhibition in vivo at 500 µg/mL (Tobacco mosaic virus [7]) [%] | inhibition at 100 µg/mL (Tobacco mosaic virus [8]) [%] | inhibition in vivo at 100 µg/mL (Tobacco mosaic virus [9]) [%] | inhibition at 500 µg/mL (Tobacco mosaic virus [10]) [%]
COc1ccc2c3c(c4cc(OC)c(OC)cc4c2c1)C[C@H]1CCCN1C3 [(-)-ANTOFINE] | 63 |  |  |  |  |  |  |  |  | 
COc1ccc2c3c(c4cc(OC)c(OC)cc4c2c1)CN1CCC[C@H]1[C@H]3NC(C)=O |  | 0 | 16.7 | 25.2 | 23.5 | 28.6 | 38.1 | 7.4 | 15.3 | 
CCCCN[C@@H]1c2c(c3cc(OC)c(OC)cc3c3cc(OC)ccc23)CN2CCC[C@H]12 |  | 20.5 | 23.7 | 58.2 | 47.6 | 57.6 | 53.5 | 24.3 | 27.4 | 
CCCCN[C@H]1c2c(c3cc(OC)c(OC)cc3c3cc(OC)ccc23)CN2C(=O)CC[C@@H]12 |  | 20.3 | 25.6 | 47.5 | 52.5 | 50.3 | 47.2 | 30 | 26.2 | 
COc1cc2c3c(c4cc(OC)c(OC)cc4c2cc1OC)[C@H](N)[C@@H]1CCCN1C3 |  | 0 | 11.2 | 15.5 | 12.9 | 18.4 | 17.6 | 0 | 7.3 | 
CC(=O)N1CN(C(C)=O)C(=O)NC1=O |  |  |  |  |  |  |  |  |  | 50
O=C1NCNC(=O)N1 |  |  |  |  |  |  |  |  |  | 50
CCCCN[C@@H]1c2c(c3cc(OC)c(OC)cc3c3cc(OC)ccc23)CN2CCC[C@@H]12 |  | 30.4 | 32.6 | 66.6 | 72.3 | 69.5 | 64.2 | 41.2 | 36.8 | 
COc1cc2c3c(c4cc(OC)c(OC)cc4c2cc1OC)CN1CCCC1C3 (racemic) [(+/-)-TYLOPHORINE] |  | 30.7 | 33.3 | 52 | 51.8 | 56.6 | 46.5 | 27.6 | 31.5 | 
COc1ccc2c3c(c4cc(OC)c(OC)cc4c2c1)[C@H](N)[C@@H]1CCCN1C3 |  | 29.6 | 32.1 | 42.3 | 48.2 | 44.4 | 41.9 | 32.5 | 30.1 | 
CCCCN[C@H]1c2c(c3cc(OC)c(OC)cc3c3cc(OC)ccc23)CN2CCC[C@H]12 |  | 16.7 | 15.2 | 50.2 | 51.4 | 54.2 | 42.3 | 19.9 | 20 | 
COc1cc2c3c(c4cc(OC)c(OC)cc4c2cc1OC)[C@H](NC(=O)C(C)(C)C)[C@@H]1CCCN1C3 |  | 26.3 | 16.9 | 38.5 | 42.4 | 38.9 | 28.5 | 23.1 | 22 | 

Reference: ChEMBL document CHEMBL3045658, “Design, synthesis, antiviral activity, and SARs of 14-aminophenanthroindolizidines” (2012)
